# Measurements as given in the supplement of paper PMC10307832.
# Compound: Cc1cnc(CNC(=O)c2c(=O)c3ccc(N4CCCN(C)CC4)nc3n3c2sc2ccccc23)cn1 [CX-5461] + CC1(C)CCC(c2ccc(Cl)cc2)=C(CN2CCN(c3ccc(C(=O)NS(=O)(=O)c4ccc(N[C@H](CCN5CCOCC5)CSc5ccccc5)c(S(=O)(=O)C(F)(F)F)c4)cc3)CC2)C1 [Navitoclax] (partner 0.5 µM)
# Test: relative viability (nuclei count vs DMSO), 5 days (fraction); higher = more cells survive
# Conditions: first compound 0.01 µM
# Method in brief: (§1)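 Relative viability is defined as nuclei in treated wells over nuclei in vehicle wells. Duplicate plates were run and medians reported. Lung cancer cell lines in 1536-well plates were dosed by pin tool one day after seeding, with one drug or with a fixed anchor-drug dose plus five library-drug doses (not always all listed) in √10 steps, and nuclei were counted after 5 days.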
row,Cell Line,relative viability
1,NCI-H727,0.493
2,NCI-H1650,1.29
3,EBC-1,0.391
4,NCI-H1703,1.22
5,NCI-H1993,0.946
6,SK-LU-1,0.792
7,NCI-H838,1.22
8,NCI-H520,1.09
9,NCI-H2126,0.873
10,EMC-BAC-2,1.17
11,NCI-H2085,1.21
12,Calu-6,0.659
13,HCC-366,1.04
14,NCI-H1666,0.967
15,NCI-H596,0.928
16,NCI-H1395,1.17
17,NCI-H2087,1.24
18,H3255,0.626
19,COR-L23,0.966
20,COR-L 105,0.891
21,IA-LM,0.941
22,LOU-NH91,0.7
23,ChaGo-K-1,1.32
24,NCI-H2405,0.957
25,HCC-44,0.931
26,A549,1.05
27,NCI-H1299,1.1
28,NCI-H1792,0.657

# Same assay, conditions: first compound 0.03162 µM
row,Cell Line,relative viability
1,NCI-H727,0.365
2,NCI-H1650,1.02
3,EBC-1,0.374
4,NCI-H1703,1.28
5,NCI-H1993,1
6,SK-LU-1,0.972
7,NCI-H838,1.24
8,NCI-H520,0.891
9,NCI-H2126,0.863
10,EMC-BAC-2,1.29
11,NCI-H2085,1.16
12,Calu-6,0.872
13,HCC-366,1.06
14,NCI-H1666,1
15,NCI-H596,1.01
16,NCI-H1395,0.993
17,NCI-H2087,1.11
18,LK-2,0.984
19,H3255,0.484
20,COR-L23,0.981
21,COR-L 105,0.734
22,IA-LM,0.993
23,LOU-NH91,0.694
24,ChaGo-K-1,0.947
25,NCI-H2405,0.92
26,HCC-44,1.08
27,A549,0.932
28,NCI-H1299,1.06
29,NCI-H1792,0.674

# Same assay, conditions: first compound 0.1 µM
row,Cell Line,relative viability
1,NCI-H727,0.464
2,EBC-1,0.437
3,NCI-H1703,0.932
4,NCI-H1993,0.887
5,SK-LU-1,0.718
6,NCI-H838,1.21
7,NCI-H520,1.05
8,NCI-H2126,0.896
9,EMC-BAC-2,1.21
10,NCI-H2085,1.02
11,Calu-6,0.743
12,HCC-366,1.16
13,NCI-H596,1.18
14,NCI-H1395,1.16
15,NCI-H2087,0.997
16,LK-2,0.939
17,H3255,0.533
18,COR-L23,0.786
19,COR-L 105,0.768
20,IA-LM,0.724
21,LOU-NH91,0.735
22,ChaGo-K-1,0.752
23,NCI-H2405,0.997
24,HCC-44,1.09
25,NCI-H1299,1.04
26,NCI-H1792,0.696

# Same assay, conditions: first compound 0.3162 µM
row,Cell Line,relative viability
1,NCI-H727,0.354
2,NCI-H1650,1.23
3,EBC-1,0.416
4,NCI-H1703,1.13
5,NCI-H1993,0.871
6,SK-LU-1,0.808
7,NCI-H838,1.06
8,NCI-H520,1.05
9,NCI-H2126,0.815
10,EMC-BAC-2,1.13
11,NCI-H2085,1.16
12,Calu-6,0.852
13,HCC-366,1.1
14,NCI-H1666,0.766
15,NCI-H596,0.98
16,NCI-H1395,0.964
17,NCI-H2087,1.12
18,LK-2,0.319
19,H3255,0.273
20,COR-L23,0.978
21,COR-L 105,0.801
22,IA-LM,0.769
23,LOU-NH91,0.472
24,ChaGo-K-1,0.413
25,NCI-H2405,0.431
26,HCC-44,0.983
27,A549,0.833
28,NCI-H1299,1.04
29,NCI-H1792,0.692

# Same assay, conditions: first compound 1 µM
row,Cell Line,relative viability
1,NCI-H727,0.31
2,NCI-H1650,0.2
3,EBC-1,0.197
4,NCI-H1703,0.313
5,NCI-H1993,0.922
6,SK-LU-1,0.23
7,NCI-H838,0.897
8,NCI-H520,0.793
9,NCI-H2126,0.804
10,EMC-BAC-2,1.14
11,NCI-H2085,1.11
12,Calu-6,0.157
13,HCC-366,1.11
14,NCI-H1666,0.397
15,NCI-H596,1.02
16,NCI-H1395,0.63
17,NCI-H2087,0.797
18,LK-2,0.904
19,H3255,0.397
20,COR-L23,0.417
21,COR-L 105,0.689
22,IA-LM,0.272
23,LOU-NH91,0.575
24,ChaGo-K-1,0.618
25,NCI-H2405,0.743
26,HCC-44,1.02
27,A549,0.035
28,NCI-H1299,1.05
29,NCI-H1792,0.468

# Compound: O=C(Nc1cc(C(F)(F)F)cc(C(F)(F)F)c1)c1cc(Cl)ccc1O [IMD-0354] + CC1(C)CCC(c2ccc(Cl)cc2)=C(CN2CCN(c3ccc(C(=O)NS(=O)(=O)c4ccc(N[C@H](CCN5CCOCC5)CSc5ccccc5)c(S(=O)(=O)C(F)(F)F)c4)cc3)CC2)C1 [Navitoclax] (partner 0.5 µM)
# Test: as above
# Conditions: first compound 0.04 µM
# Method in brief: as §1
row,Cell Line,relative viability
1,NCI-H727,0.407
2,NCI-H1650,1.42
3,EBC-1,0.41
4,NCI-H1703,1.37
5,NCI-H1993,0.975
6,SK-LU-1,1.26
7,NCI-H838,1.16
8,NCI-H520,1.25
9,NCI-H2126,0.905
10,EMC-BAC-2,1.2
11,NCI-H2085,1.17
12,Calu-6,0.94
13,HCC-366,1.03
14,NCI-H1666,1.09
15,NCI-H596,0.96
16,NCI-H1395,1.15
17,NCI-H2087,0.918
18,LK-2,1.15
19,H3255,0.394
20,COR-L23,0.891
21,COR-L 105,0.731
22,IA-LM,0.778
23,LOU-NH91,0.734
24,ChaGo-K-1,1.43
25,NCI-H2405,1.08
26,HCC-44,0.953
27,A549,1.37
28,NCI-H1299,0.981
29,NCI-H1792,0.761

# Same assay, conditions: first compound 0.1265 µM
row,Cell Line,relative viability
1,NCI-H727,0.319
2,NCI-H1650,1.06
3,EBC-1,0.374
4,NCI-H1703,1.12
5,NCI-H1993,0.792
6,SK-LU-1,1.17
7,NCI-H838,1.21
8,NCI-H520,0.928
9,NCI-H2126,0.817
10,EMC-BAC-2,1.17
11,NCI-H2085,1.16
12,Calu-6,0.903
13,HCC-366,1.17
14,NCI-H1666,0.932
15,NCI-H596,0.854
16,NCI-H1395,1.24
17,NCI-H2087,0.815
18,LK-2,0.812
19,H3255,0.715
20,COR-L23,0.961
21,COR-L 105,0.684
22,IA-LM,0.662
23,LOU-NH91,0.712
24,ChaGo-K-1,1.48
25,NCI-H2405,0.952
26,HCC-44,0.951
27,A549,1.19
28,NCI-H1299,1.08
29,NCI-H1792,0.564

# Same assay, conditions: first compound 0.4 µM
row,Cell Line,relative viability
1,NCI-H727,0.423
2,NCI-H1650,0.682
3,EBC-1,0.334
4,NCI-H1703,0.843
5,NCI-H1993,0.722
6,SK-LU-1,0.223
7,NCI-H838,0.468
8,NCI-H520,0.473
9,NCI-H2126,0.673
10,EMC-BAC-2,0.617
11,NCI-H2085,0.859
12,Calu-6,0.355
13,HCC-366,0.235
14,NCI-H1666,0.83
15,NCI-H596,0.777
16,NCI-H1395,0.931
17,NCI-H2087,0.363
18,H3255,0.408
19,COR-L23,0.375
20,COR-L 105,0.644
21,IA-LM,0.381
22,LOU-NH91,0.396
23,ChaGo-K-1,0.672
24,NCI-H2405,0.612
25,HCC-44,0.446
26,A549,0.54
27,NCI-H1299,0.259
28,NCI-H1792,1.66

# Same assay, conditions: first compound 1.265 µM
row,Cell Line,relative viability
1,NCI-H727,0.165
2,NCI-H1650,0.149
3,EBC-1,0.144
4,NCI-H1703,0.131
5,NCI-H1993,0.552
6,SK-LU-1,0.386
7,NCI-H838,0.314
8,NCI-H520,0.159
9,NCI-H2126,0.79
10,EMC-BAC-2,0.977
11,NCI-H2085,0.62
12,Calu-6,0.122
13,HCC-366,0.27
14,NCI-H1666,0.153
15,NCI-H596,0.982
16,NCI-H1395,0.389
17,NCI-H2087,0.111
18,LK-2,0.777
19,H3255,0.089
20,COR-L23,0.0982
21,COR-L 105,0.374
22,IA-LM,0.122
23,LOU-NH91,0.135
24,ChaGo-K-1,0.296
25,NCI-H2405,0.174
26,HCC-44,0.203
27,A549,0.0726
28,NCI-H1299,0.442
29,NCI-H1792,0.346

# Same assay, conditions: first compound 4 µM
row,Cell Line,relative viability
1,NCI-H727,0.205
2,NCI-H1650,0.171
3,EBC-1,0.185
4,NCI-H1703,0.115
5,NCI-H1993,0.576
6,SK-LU-1,0.126
7,NCI-H838,0.251
8,NCI-H520,0.254
9,NCI-H2126,0.269
10,EMC-BAC-2,0.219
11,NCI-H2085,0.251
12,Calu-6,0.104
13,HCC-366,0.0258
14,NCI-H1666,0.174
15,NCI-H596,0.476
16,NCI-H1395,0.311
17,NCI-H2087,0.158
18,LK-2,0.247
19,H3255,0.144
20,COR-L23,0.147
21,COR-L 105,0.269
22,IA-LM,0.0656
23,LOU-NH91,0.165
24,ChaGo-K-1,0.327
25,NCI-H2405,0.113
26,HCC-44,0.215
27,A549,0.0514
28,NCI-H1299,0.146
29,NCI-H1792,0.482

# Compound: O=C(Nc1cc(C(F)(F)F)cc(C(F)(F)F)c1)c1cc(Cl)ccc1O [IMD-0354] + COc1cc2c(Oc3ccc(NC(=O)C4(C(=O)Nc5ccc(F)cc5)CC4)cc3F)ccnc2cc1OCCCN1CCOCC1 [Foretinib] (partner 0.25 µM)
# Test: as above
# Conditions: first compound 0.04 µM
# Method in brief: as §1
row,Cell Line,relative viability
1,NCI-H1623,0.896
2,NCI-H727,0.94
3,NCI-H1650,1.32
4,EBC-1,0.0859
5,NCI-H1703,0.407
6,NCI-H1993,0.768
7,SK-LU-1,0.808
8,NCI-H838,1.08
9,LCLC-103H,0.745
10,NCI-H520,1.04
11,NCI-H2126,0.935
12,EMC-BAC-2,1.08
13,NCI-H2085,0.97
14,Calu-6,0.941
15,HCC-366,0.837
16,NCI-H1666,0.99
17,NCI-H596,0.901
18,NCI-H1395,1.08
19,NCI-H2087,1.08
20,NCI-H2342,1.08
21,LK-2,1.76
22,H3255,0.836
23,COR-L23,0.833
24,COR-L 105,1.25
